Reference: paper PMC5751205, “Rapid Non-Enzymatic Glycation of the Insulin Receptor under Hyperglycemic Conditions Inhibits Insulin Binding In Vitro: Implications for Insulin Resistance” (International Journal of Molecular Sciences, 2017)
pKd: −log10 of the molar value. Where two headings read alike, the source gives them in different places. No end group written: not given here.

Legend:
insulin-HRP [1] = molecular target: T1, insulin-HRP (Homo sapiens, UniProt P01308); assay: Insulin-HRP binding to IR peptides (ELISA plate, ABTS read-out); conditions: Ins-HRP at 10 nM, IR peptide in the absence of glycation
T1 sequence (P01308 90-110): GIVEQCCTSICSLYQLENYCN
T1 sequence (P01308 25-54): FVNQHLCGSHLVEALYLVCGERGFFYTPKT
Procedure: (§1) Each peptide was held constant at 0.1 mg/mL in pH 7.4 phosphate-buffered saline, and 100 μL aliquots were pipetted into rows of a Costar high-binding ELISA plate and incubated for an hour. The plate was washed 3× with 0.1% Tween 20 (Sigma-Aldrich) in 0.05 M phosphate buffered saline (PBS). Two hundred µL 2% polyvinyl alcohol in PBS were added to each well and incubated 1 h. The plates were then washed 3× again with 0.1% Tween 20. A solution of insulin conjugated to horse-radish peroxidase (HRP), 0.83 µg in 1.0 mL PBS, was made and serially diluted with PBS by thirds, ten times. These serial dilutions were added to the plate wells, incubated for an hour, and then washed 3× as before. Finally, 100 µL of stock ABTS [2,2′-azino-bis(3-ethylbenzothiazoline-6-sulphonic acid)] (Millipore, Burlington, MA, USA) was added to each well, incubated for thirty minutes, and the plate was then read on a SpectraMax Plus scanning microplate spectrophotometer at 405 nm. Controls wells lacking peptide but with PVA, INS-HRP and ABTS measured non-specific binding that was subtracted from the absorbance values of the rest of the wells. All experiments were run in triplicate and the averages of the corrected absorbances were then plotted against the concentration of the INS–HRP for each peptide to yield binding curves. Because binding curves are calculated by plotting differences, it was not possible to incorporate error bars into these curves.

insulin-HRP [2] = molecular target: T1, insulin-HRP; assay: Effect of glycation on insulin-HRP binding to IR peptides; conditions: for Ins-HRP Binding Inhibition (Glycated): change in Ins-HRP binding at 10 nM after exposure of the peptide to glycating conditions (six days at 20 mM glucose); for Change of INS-HRP binding to the peptide after glycation: 6-day exposure to 20 mM glucose, triplicate, averaged
Procedure: Insulin receptor peptides (Figure 1) were synthesized by RS Synthesis (Louisville, KY, USA) to at least 95% purity by high pressure liquid chromatography (HPLC) and mass spectrometry. Peptides or recombinant human insulin (rHu) (Lilly, Indianapolis, IN, USA) were dissolved in glucose-free, phenol-red-free, Dulbecco’s modified Eagle growth medium (DMEM) to 1 mg/mL. Stock 2.0 M D-glucose (Sigma-Aldrich, St. Louis, MO, USA) solutions were also made in DMEM. The peptide and glucose stocks were combined to yield final reaction solutions with peptides at 0.1 mg/mL and glucose at […]. Combinations were incubated at 36–38 °C for 1–6 days. Reactions were stopped and solutions were stored by freezing at −20 °C. Glycated peptides were desalted by centrifugal filtration through Ultrafree-MC 5 kda or Ultracel 3 kda filter units. Resulting retentate was resuspended in low ionic strength saline immediately before performing mass spectrometry.
as §1
The same technique just described in Section 4.3 was used to measure the effect of glycation on INS-HRP binding to IR peptides as above with one change: IR peptides were serially diluted instead of the INS-HRP, which was held constant. This methodological modification was made in order to reduce the amount of IR peptide required to obtain results. As in Section 4.3, each experiment was run in triplicate and the results averaged.

[3] = ref [41],[42], cited from earlier work; for pKd: glucose binding non-covalently to the peptide, read-out: Glucose Binding Kd
Procedure: Table 1 Table summarizing experiments to identify motifs determining insulin-receptor (IR) peptide glycation and whether glycation of IR peptides results in inhibition of insulin binding to these peptides. Specifically, this table provides binding constants glucose binding non-covalently to various insulin receptor (IR) peptides; glycation of the same IR peptides at 20 mM glucose for six days; the | column: Glucose Binding Kd (mM)

[4] = test system: insulin receptor (IR), intact recombinant, glycated; assay: Insulin binding to intact glycated insulin receptor by UV spectroscopy; conditions: IR incubated six days at 37 °C in 20 mM glucose, measured as decrease in absorbance
Procedure: (§2) Intact recombinant IR was obtained from Sigma-Aldrich (St. Louis, MO, USA) and utilized at 42.9 units/mL in phosphate buffered saline, pH 7.4 (PBS) or in PBS with 20 mM glucose added. PBS and 20 mM glucose solutions of IR were incubated for six days at 37 °C. An aliquot of each preparation was then subjected to centrifugal filtration and washing through Ultrafree-MC 5 kda or Ultracel 3 kda filter units. The resulting retentates were resuspended in PBS. In this way, identical preparations of unglycated IR and glycated IR were made in both PBS and in 20 mM gucose PBS. Microliter quantities of PBS buffer, or 20 mM glucose PBS, or human recombinant INS (Sigma-Aldrich, St. Louis, MO, USA) in PBS or 20 mM glucose PBS were then added serially to 100 µL of each of the four preparations of IR and to control wells containing only PBS or 20 mM glucose PBS. Experiments were carried out in a crystal 96-well plate and the serial combinations subjected to UV spectrophotometry to obtain their spectra. The spectra of the control wells were subtracted from the spectra of the experimental wells to yield expected values at each UV wavelength and differences between the controls and experimental values determined. […] Binding constants were determined from the concentration at which the binding curves inverted. […]

[5] = molecular target: insulin receptor (IR), intact recombinant, unglycated; assay: Insulin binding to intact unglycated insulin receptor by UV spectroscopy; conditions: one of two independent runs
Procedure: as §2

| Substance | 10 nM Ins-HRP Binding (Native) (insulin-HRP [1]) | Ins-HRP Binding Inhibition (Glycated) (insulin-HRP [2]) | Change of INS-HRP binding to the peptide after glycation (insulin-HRP [2]) | pKd [3] | also measured |
| --- | --- | --- | --- | --- | --- |
| ESEDSQKHNQSEYEDS [689-705, synthetic insulin receptor peptide, residues 689-705 of human IR] | no | no |  | 1.20 |  |
| Insulin: recombinant human insulin (Lilly for glycation; Sigma-Aldrich for IR binding) |  |  |  | 3.60 | Kd ([3]; glucose binding non-covalently, second of two values printed for insulin, read-out: Glucose Binding Kd (mM), second value): 30 mM; Decrease in amount of INS binding due to glycation of the IR, in 20 mM glucose ([4]; binding in PBS with 20 mM glucose): one third; Decrease in amount of INS binding due to glycation of the IR, in PBS ([4]; binding in PBS without glucose): one third; Binding constant of unglycated INS for unglycated IR in 20 mM glucose ([5]; PBS pH 7.4 with 20 mM glucose): 110 µg/mL of INS; Binding constant of unglycated INS for unglycated IR in PBS ([5]; PBS pH 7.4 without glucose, concentration at which the binding curve inverted): 70 µg/mL of INS |
| H-NLTVIRGSRLFFNY [105-118] | YES | YES | very significant loss of INS-HRP binding | 1.46 |  |
| H-FRVYGLESLKDLF [91-103] | YES | YES | very significant loss of INS-HRP binding | 1.43 |  |
| H-TQGKLFFHYNPK [453-464] | no | no |  | 1.24 |  |
| GMDIRNNLTRLHELE [37-51, synthetic insulin receptor peptide, residues 37-51 of human IR (UniProt P06213)] | no | no |  | 1.40 |  |
| KTFEDYLHNVVFV [730-742, synthetic insulin receptor peptide, residues 730-742 of human IR] | no | no |  | 1.22 |  |

Further lines, with some results ahead:

| 10 nM Ins-HRP Binding (Native) (insulin-HRP [1]) | Ins-HRP Binding Inhibition (Glycated) (insulin-HRP [2]) | Change of INS-HRP binding to the peptide after glycation (insulin-HRP [2]) | Substance | pKd [3] | also measured |
| --- | --- | --- | --- | --- | --- |
| no | no |  | H-TIDWSRILDS [157-166] | 1.24 |  |
| YES | YES | very significant loss of INS-HRP binding | ENCSVIEGHLQ [51-61, synthetic insulin receptor peptide, residues 51-61 of human IR, insulin-like] | 1.28 | Insulin-HRP binding after incubation of the peptide in 200 mM glucose (insulin-HRP [2]; 200 mM glucose, six days): nearly undetectable levels; Factor by which glycation reduces the insulin-HRP binding constant (insulin-HRP [2]; peptide incubated in 20 and 60 mM glucose over six days): approximately 2 |
| no | no |  | HLYFGEVCPGMDIRNN [28-43, synthetic insulin receptor peptide, residues 28-43 of human IR (UniProt P06213)] | 1.30 |  |
